Experiments:
[1] = target: T1, alpha-amylase (α–amylase); assay: DNS colorimetric assay; format: biochemical; details: starch 0.5%, 20 mM phosphate pH 6.9, 25 °C, 10 min preincubation
T1 construct: commercial preparation from Sigma-Aldrich

[2] = target: T2, alpha-glucosidase (Saccharomyces cerevisiae); assay: p-nitrophenol release, absorbance […] nm; format: biochemical; details: p-nitrophenyl alpha-D-glucopyranoside 5 mM stock (20 μL), 100 mM phosphate pH 6.8, 37 °C, 15 min preincubation
T2 construct: gene MAL12; commercial preparation from Sigma-Aldrich

** IC50 [1] [µg/mL] | ** IC50 [2] [µg/mL] | Compound
297.8 | 120.22 | Nc1ccc(N2C(=O)CSC23CCCCC3)cc1 [compound 1, 4-(4-aminophenyl)-1-thia-4-azaspiro[4.5]decan-3-one]
421.42 | 363.67 | NN=C1CSC2(CCCCC2)N1c1ccc(N)cc1 [compound 2, 4-(3-hydrazono-1-thia-4-azaspiro[4.5]decan-4-yl)aniline]
94.9 | 63.6 | N#Cc1c(N)nc2c(c1-c1ccc(Cl)cc1)SC1(CCCCC1)N2c1ccc(N)cc1 [compound 6, 5′-amino-3′-(4-aminophenyl)-7′-(4-chlorophenyl)-3′H-spiro[cyclohexane-1,2′-thiazolo[4,5-b]pyridine]-6′-carbonitrile]
239.37 | 117.36 | N#Cc1c(-c2ccc(Cl)cc2)c2c([nH]c1=O)N(c1ccc(N)cc1)C1(CCCCC1)S2 [compound 7, 3′-(4-aminophenyl)-7′-(4-chlorophenyl)-5′-oxo-4′,5′-dihydro-3′H-spiro[cyclohexane-1,2′-thiazolo[4,5-b]pyridine]-6′-carbonitrile]
199.01 | 114.45 | Nc1ccc(N2C(=O)C(=Cc3ccc(Cl)cc3)SC23CCCCC3)cc1 [compound 8, 4-(4-aminophenyl)-2-(4-chlorobenzylidene)-1-thia-4-azaspiro[4.5]decan-3-one]
58.85 | 52.47 | Nc1ccc(N2c3[nH]nc(-c4ccc(Cl)cc4)c3SC23CCCCC3)cc1 [compound 9, 4-(3′-(4-chlorophenyl)-spiro[cyclohexane-1,5′-pyrazolo[3,4-d]thiazol]-6′ (1′H)-yl)aniline]
271.3 | 118.11 | N#Cc1c(-c2ccc(Cl)cc2)c2c(n(CCO)c1=O)N(c1ccc(N)cc1)C1(CCCCC1)S2 [compound 13, 3′-(4-aminophenyl)-7′-(4-chlorophenyl)-4′-(2-hydroxyethyl)-5′-oxo-4′,5′-dihydro-3′H-spiro[cyclohexane-1,2′-thiazolo[4,5-b]pyridine]-6′-carbonitrile]
> 1000 | 570.4 | CCOC(=O)Cn1c2c(c(-c3ccc(Cl)cc3)c(C#N)c1=O)SC1(CCCCC1)N2c1ccc(N)cc1 [compound 16, Ethyl 2-(3′-(4-aminophenyl)-7′-(4-chlorophenyl)-6′-cyano-5′-oxo-3′,5′-dihydro-4′H-spiro [cyclohexane-1,2′-thiazolo[4,5-b]pyridin]-4′-yl)acetate]

From publication PMC6650905, “Development of a Novel Series of Anticancer and Antidiabetic: Spirothiazolidines Analogs” (Molecules, 2019)
